Experimental data: patent US11352604B2, “Method of making cardiomyocytes from human pluripotent cells” (Wisconsin Alumni Research Foundation, priority 2016, dated 2022)

Columns and labels:
hPSC-CMs [1] = experiment: Immunofluorescence cell size (area of cTnT staining); format: cell-based, human; details: day 30, pI:C-treated vs untreated progenitors
Method: For internal antigens, cells were rinsed of media two times in PBS, fixed for 10 minutes in 4% paraformaldehyde at RT, rinsed three times again in PBS, then blocked for 1 hour at room temperature (RT) in Licor blocking buffer containing 0.2% Triton x-100 (Sigma). Blocking solution was aspirated and antibodies added overnight at 4° C. in fresh blocking/permeabilization solution. Antibodies used were mouse cardiac troponin T (Thermo Fisher Scientific, 1:200), rabbit WT1 (Abcam 1:200), mouse smooth muscle myosin heavy chain (Abcam, 1:200), goat Jag1 c-terminal domain (1:200 Abcam), MMP1 (Abcam, 1:200), mouse cardiac actin (Sigma, 1:200), rabbit SLC25A4 (Proteintech, 1:100), rabbit DBT (Proteintech, 1:100), rabbit ATP5F1 (Proteintech, 1:100), rabbit Irx4 (Abcam, 1:200), goat nkx2.5 (Santa Cruz, 1:50), mouse connexin 40 (Thermo Fisher Scientific, 1:200), and fibroblast-specific protein (Abcam, 1:100). After primary and secondary antibodies, cells were rinsed two times in PBS with 0.2% triton x-100. Donkey secondaries conjugated to Alexa Fluor dyes were used at 1:1000 and incubated at RT for 1 h. DAPI or Hoechst was used to visualize nuclei. Cells were imaged either on an EVOS system in wells (Thermo Fisher Scientific) or a Leica confocal microscope in cover glass or ibidi 8-well microslides. Image J was used to quantify cell area by outer boundaries of cTnT staining.

hPSC-CMs [2] = experiment: Cardiomyocyte yield and purity in GiWi differentiation; format: cell-based, human; details: day 30, pI:C alone vs untreated
Method: To differentiate cardiomyocytes from hPSCs, the small molecule temporal modulation of the Wnt pathway (GiWi) monolayer protocol was used essentially as previously described (Lian et al., 2012). Human embryonic or induced pluripotent stem cells were dissociated with Versene (Thermo Fisher Scientific) for 6 minutes at 37° C., pipetted up and down 40 times, counted with a hemocytometer, spun down at 100×g for 5 minutes, and resuspended and seeded for differentiation at 1.5 million cells per well in 6 well plates or 0.4 million per well in 12 well plates in mTeSR® on stem-cell verified Matrigel® (WiCell) containing 10 μM Y-27632 ROCK-inhibitor (Tocris). After four days in mTeSR® (WiCell), at which point cells grew to 100 percent confluence, medium was switched to RPMI supplemented with B27 supplement not containing insulin (Thermo Fisher Scientific) and containing 12 μM of the Wnt agonist CHIR99021 (Tocris) for exactly 24 hours. Media was then changed to RPMI supplemented with B27 not containing insulin for exactly 48 hours. Then medium was then switched at day 3 to RPMI supplemented with B27 not containing insulin and containing 5 μM IWP2 (Tocris). At day 5, media was switched to RPMI supplemented with B27 not containing insulin for two days. At day 7 and every three days afterward, medium was replaced with RPMI supplemented with B27 containing insulin (Thermo Fisher Scientific). […]

Substance: polyinosinic-polycytidylic acid [pI:C]
- hPSC-CM cell size (hPSC-CMs [1]): twice as large
- yield of cardiomyocytes (hPSC-CMs [2]): more than double the yield
